Results on 26 compounds are retold here after BindingDB's records for doi:10.7270/Q2KH0KWR (Burnham Center For Chemical Genomics, 2012).

The target in this test is T1, Tyrosine-protein phosphatase non-receptor type 5 (Homo sapiens, UniProt P54829).
T1 sequence (P54829 whole entry): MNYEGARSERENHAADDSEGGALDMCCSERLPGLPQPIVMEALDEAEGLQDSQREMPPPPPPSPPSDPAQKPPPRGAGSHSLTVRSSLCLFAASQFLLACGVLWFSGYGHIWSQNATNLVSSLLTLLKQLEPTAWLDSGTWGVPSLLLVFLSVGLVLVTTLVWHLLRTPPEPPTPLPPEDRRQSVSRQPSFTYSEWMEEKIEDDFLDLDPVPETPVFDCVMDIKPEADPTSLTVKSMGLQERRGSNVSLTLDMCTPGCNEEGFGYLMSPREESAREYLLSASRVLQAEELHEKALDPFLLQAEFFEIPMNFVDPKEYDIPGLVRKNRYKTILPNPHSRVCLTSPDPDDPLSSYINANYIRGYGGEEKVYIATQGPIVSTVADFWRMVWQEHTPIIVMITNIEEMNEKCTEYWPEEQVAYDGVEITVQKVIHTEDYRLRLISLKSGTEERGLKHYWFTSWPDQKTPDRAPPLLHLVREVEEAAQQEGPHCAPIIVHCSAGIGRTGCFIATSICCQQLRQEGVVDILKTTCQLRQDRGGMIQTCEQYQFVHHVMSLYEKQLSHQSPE
The test is described as follows: PTPN5 inhibition measured colorimetrically – biochemical, colorimetric absorbance, orthogonal assay for STEP inhibitor project, dose response (AID 624207).

[1] abbreviates: inactive by the depositor's call.

Compound `O=Cc1cn(-c2ccccc2)nc1-c1cc2cc(O)ccc2oc1=O` [SMR000152596] had an IC50 of more than 80 µM.
The compound `CCN1CCN(C(=S)c2ccc(Br)cc2)CC1` [SMR000198085] came in with an IC50 under setting [1] of 63.9 µM.
For `CCN(c1ccccc1)S(=O)(=O)c1cc(C(=O)OC(C)C(=O)Nc2ccc3c(c2)OCCO3)ccc1C` (stereo unspecified) [SMR000242949], the IC50 is more than 80 µM.
`COc1ccccc1Nc1ccc([N+](=O)[O-])cc1N` [SMR000260154] came in with a half-maximal inhibitory concentration (IC50) of more than 80 µM.
Consider `N=C(NCc1ccc2c(c1)OCO2)NC(=O)c1ccccc1` [SMR000293067], for which, under setting [1], 77 µM corresponded to half-maximal inhibition (IC50).
In turn, `O=C(NC1CCCCCC1)C(=S)NC1CCCCC1` [SMR000296231] returned an IC50 of more than 80 µM.
For the compound `N=C1S/C(=C\c2ccc(O)cc2)C(=O)N1c1ccc(F)cc1` [SMR000298434], the IC50 is more than 80 µM.
Compound `CCOC(=O)N1CCC(N(CCN(C)C)C(=S)Nc2ccc(Oc3ccccc3)cc2)CC1` [SMR000311544] gave an IC50 under setting [1] of 27 µM.
For the compound `O=C(COc1ccc([N+](=O)[O-])cc1)Nc1nnc(-c2cccnc2)s1` [SMR000385697], the IC50 was more than 80 µM.
`Cc1ccc(NC(=O)CN2C(=O)S/C(=C\c3ccc(OCC(=O)O)c(Br)c3)C2=O)cc1` [SMR000477386] returned a half-maximal inhibitory concentration (IC50) of more than 80 µM.
The compound `COc1cc(/C=N/NC(=O)c2ccccc2O)ccc1OCC(=O)Nc1ccccc1` [SMR000515267] showed an IC50 under setting [1] of 44.7 µM.
Under setting [1], `COC(=O)c1ccccc1CSc1nsc(/C=C/N(C)C)c1C#N` [SMR000549393] had an IC50 of 33.5 µM.
On to `Cc1ccc(NC(=O)CCn2c(=S)oc3ccccc32)cc1F` [SMR000564947], for which the IC50 was more than 80 µM.
As to `CCOC(=O)CC(NS(=O)(=O)c1ccc2ncc(C(=O)O)c(O)c2c1)c1ccc(OCC)c(OC)c1` (stereo unspecified) [SMR000621519], the concentration for half-maximal inhibition (IC50) is more than 80 µM.
`Cc1ccc(NC(=O)c2ccc3nc(N4CCOCC4)sc3c2)c(Cl)c1` [SMR000624920] showed an IC50 under setting [1] of 22.4 µM.
Compound `Cc1c(C)c2ccc(OCC(=O)Nc3ccc(S(N)(=O)=O)cc3)c(C)c2oc1=O` [SMR000652408] gave an IC50 under setting [1] of 36.1 µM.
With `Cc1sc2nc(CSC(C)C(=O)Nc3ccc(Cl)cn3)nc(O)c2c1C` (stereo unspecified) [SMR001268769], it took 38.4 µM to reach half-maximal inhibition under setting [1] (IC50).
For the compound `O=C(NN=Cc1ccccc1O)NN=Cc1ccccc1O` [SMR001556943], inhibition was half-maximal at 32.5 µM (IC50).
Take `CC(=NNC(=S)N1CC2CCC(CC2)C1)c1cccc(C)n1` [SMR001565418]: the 50% inhibitory concentration (IC50) is more than 80 µM.
Consider `CCN(c1ccccc1)S(=O)(=O)c1cc(C(=O)OCC(=O)c2c(N)n(C)c(=O)n(C)c2=O)ccc1C` [[2-(4-amino-1,3-dimethyl-2,6-dioxopyrimidin-5-yl)-2-oxoethyl] 3-[ethyl(phenyl)sulfamoyl]-4-methylbenzoate], for which the IC50 was more than 80 µM.
Turning to `COc1ccc(CN=Nc2nc(O)c(CC(=O)O)s2)cc1OCc1ccc(Cl)cc1Cl` [[2-({3-[(2,4-dichlorobenzyl)oxy]-4-methoxybenzylidene}hydrazono)-4-oxo-1,3-thiazolidin-5-yl]acetic acid], the half-maximal inhibitory concentration (IC50) was found to be 13.6 µM.
The compound `Cc1ccccc1N1CCN(C(=S)c2ccc(-c3cccc([N+](=O)[O-])c3)o2)CC1` [[4-(2-methylphenyl)-1-piperazinyl]-[5-(3-nitrophenyl)-2-furanyl]methanethione] gave a 50% inhibitory concentration (IC50) of more than 80 µM.
Compound `CCOC(=O)N1CCC(N(CCN(C)C)C(=S)Nc2cc(Cl)ccc2C)CC1` [ethyl 4-[(5-chloranyl-2-methyl-phenyl)carbamothioyl-[2-(dimethylamino)ethyl]amino]piperidine-1-carboxylate] displayed a half-maximal inhibitory concentration (IC50) under setting [1] of 77.1 µM. In other words, the double-digit micromolar range.
Under setting [1], `CCOC(=O)c1c(NC(=O)OC)sc(C(=O)N(CC)CC)c1C` [ethyl 5-(diethylcarbamoyl)-2-(methoxycarbonylamino)-4-methylthiophene-3-carboxylate] came in with an IC50 of 44.3 µM.
In turn, `NS(=O)(=O)c1ccccc1` [sodium;phenylsulfonylazanide] showed an IC50 of 73 µM.
Same read-out and setting: to `CC1=C(C(=O)OC(C)C)C(c2ccc(Cl)cc2)n2c(s/c(=C\c3ccc(OCC(=O)O)cc3)c2=O)=N1` (stereo unspecified) [{4-[(5-(4-chlorophenyl)-6-(isopropoxycarbonyl)-7-methyl-3-oxo-5H-[1,3]thiazolo[3,2-a]pyrimidin-2(3H)-ylidene)methyl]phenoxy}acetic acid] belongs 5.83 µM.

For orientation: IC50 means the concentration needed to halve the response being measured.
